Results as given in patent US7598234B2, “Steroid derived antibiotics” (Brigham Young University, priority 1998, dated 2009).
Converted amounts (≈) assume the structure as drawn.

How the values were obtained:
[1] = system: Pseudomonas aeruginosa (ATCC 27853); assay: MIC and MBC measurement with Pseudomonas aeruginosa (ATCC 27853); type: cell-based
Excerpt: (§1) General: Microorganisms. Reference strains were purchased from the American Type Culture Collection (Rockville, Md.) or Bactrol disks from Difeo Laboratories (Detroit, Mich.). The following specific ATCC strains were used: 10798 Escherichia coli, 25922 Escherichia coli, 13883 Klebsiella pneumoniae, 27853 Pseudomonas aeruginosa, 14028 Salmonella typhimurium, 29212 Enterococcus faecalis, 25923 Staphylococcus aureus, 19615 Streptococcus pyogenes, and 90028 Candida albicans. Bacterial strains were maintained on Mueller-Hinton agar plates, and Candida albicans was maintained on Sabouraud Dextrose agar plates.
(§2) Tryptic soy broth (TSB) was made by dissolving 27.5 grams of tryptic soy broth without dextrose (DIFCO Laboratories) in 1 liter of deionized water and sterilizing at 121° C. for 15 minutes. Solid agar (TSA) plates were made by dissolving 6.4 grams of tryptic soy broth and 12 grams of agar (purified grade, Fischer Scientific) in 800 mL of deionized water and sterilizing at 121° C. for 20 minutes. Aliquots (20 mL) of the homogeneous solution were then poured in sterile plastic petri dishes (100×15 mm, Fisher Scientific). Solutions of compounds were made by dissolving the HCl salt of the respective compound into an appropriate amount of deionized and sterilized water followed by microfiltration.
(§3) Aliquots of 1 mL of the suspension were added to test tubes containing 1 mL TSB and incrementally varied concentrations of cholic acid derivatives and/or erythromycin or novobiocin. In the sensitization experiments, erythromycin or novobiocin were added 15 minutes later than the cholic acid derivatives. The samples were subjected to stationary incubation at 37° C. for 24 hours. Sample turbidity was determined by measuring absorption at 760 nm (HP 8453 UV-Visible Chemstation, Hewlett Packard). Additionally, an alliquot from each of the samples showing no measurable turbidity was subcultured on TSA plates (alliquots were diluted to provide fewer than 300 CFU). Colonies that grew on the subculture after overnight incubation were counted and the number of CFU/mL in the samples were calculated. The calculated values were compared to the number of CFU/mL in the original inoculum.

[2] = system: E. coli (ATCC 25922); assay: MIC and MBC measurement with E. coli (ATCC 25922); type: cell-based, Escherichia coli
Excerpt: as §1, §2
as §3, with “inoculum. […]” for “inoculum.”

[3] = system: E. coli (ATCC 10798); assay: Sensitization to novobiocin (concentration lowering the MIC of novobiocin), E. coli (ATCC 10798); type: cell-based, Escherichia coli; conditions: Table 3, E. coli (ATCC 10798)
Protocol: (§4) Alternatively, “fractional inhibitory concentration (FIC)” is also useful for determination of synergy between the compounds of the invention, or the compounds in combination with known antibiotics. FICs can be performed by checkerboard titrations of compounds in one dimension of a microtiter plate, and of antibiotics in the other dimension, for example. The FIC is calculated by looking at the impact of one antibiotic on the MIC of the other and vice versa. […] Preferably, an FIC of less than 0.5 is obtained for synergism. As used herein, FIC can be determined as follows:
as §3
(§5) Ability to permeabilize outer membrane: Compounds 11, 106, and 108-114 (FIG. 1) were tested for antibiotic activity. They were also tested for the ability to permeabilize the outer membrane of Gram-negative bacteria, causing sensitization to hydrophobic antibiotics that cannot cross the outer membrane. The permeabilization of the outer membrane was measured using erythromycin and novobiocin.
(§6) The MICs of erythromycin and novobiocin against E. coli (ATCC 10798) at 70 and >500 μg/mL were measured.

[4] = system: Pseudomonas aeruginosa (ATCC 27853); assay: Sensitization to novobiocin, Pseudomonas aeruginosa (ATCC 27853); type: cell-based; conditions: Table 8; P. aureginosa (ATCC 27853)
Protocol: as §4
as §3, with “inoculum. […]” for “inoculum.”
(§7) To measure permeabilization, the FIC values for compounds 1, 2, 5, 106, 10, 112, 133, and 134 with erythromycin, novobiocin, and rifampicin were determined. Concentrations of 0.5, 1.0 or 3.0 μg/mL of these antibiotics were used, and the concentrations of the cholic acid derivatives required to inhibit bacterial growth of Gram-negative strains were determined.

[5] = system: Pseudomonas aeruginosa (ATCC 27853); assay: Sensitization to erythromycin, Pseudomonas aeruginosa (ATCC 27853); type: cell-based; conditions: for FIC / concentration required to inhibit bacterial growth with antibiotic: Table 11, Pseudomonas aeruginosa ATCC 27853; for FIC: erythromycin (by order); for concentration required to inhibit bacterial growth with antibiotic: erythromycin (by order) at 0.5, 1.0 or 3.0 μg/mL
Protocol: as §4
as §3, with “inoculum. […]” for “inoculum.”
as §7

[6] = system: Enterococcus faecalis ATCC 29212; assay: MIC and MBC measurement with Enterococcus faecalis ATCC 29212; type: cell-based; conditions: Table 10
Excerpt: as §1, §2, §3

[7] = Protocol: (§8) Minimum inhibition concentrations (MIC) and minimum hemolytic concentrations (MHC) were measured as described in Li et al., Antimicrob. Agents. Chemother., 1999, 43, 1347.
[8] = system: Staphylococcus aureus ATCC 25923; assay: MIC and MBC measurement with Staphylococcus aureus ATCC 25923; type: cell-based; conditions: Table 10; Staphylococcus aureus ATCC 25923
Excerpt: as §1, §2
as §3, with “inoculum. […]” for “inoculum.”

[9] = system: Streptococcus pyrogenes ATCC 19615; assay: MIC and MBC measurement with Streptococcus pyogenes ATCC 19615; type: cell-based; conditions: Table 10
Excerpt: as §1, §2, §3

[10] = system: E. coli (ATCC 10798); assay: Sensitization to erythromycin (concentration lowering the MIC of erythromycin), E. coli (ATCC 10798); type: cell-based, Escherichia coli; conditions: Table 2, E. coli (ATCC 10798)
Protocol: as §4, §3, §5, §6

[11] = system: Klebsiella pneumonia ATCC 13883; assay: MIC and MBC measurement with Klebsiella pneumoniae ATCC 13883; type: cell-based; conditions: Table 10
Excerpt: as §1, §2, §3

[12] = system: E. coli (ATCC 25922); assay: Sensitization to erythromycin, E. coli (ATCC 25922); type: cell-based, Escherichia coli; conditions: for FIC / concentration required to inhibit bacterial growth with antibiotic: Table 11, Escherichia coli ATCC 25922; for FIC: erythromycin (by order); for concentration required to inhibit bacterial growth with antibiotic: erythromycin (by order) at 0.5, 1.0 or 3.0 μg/mL
Protocol: FICs can be performed by checkerboard titrations of compounds in one dimension of a microtiter plate, and of antibiotics in the other dimension, for example. The FIC is calculated by looking at the impact of one antibiotic on the MIC of the other and vice versa. […] Preferably, an FIC of less than 0.5 is obtained for synergism. As used herein, FIC can be determined as follows:
as §3
Concentrations of 0.5, 1.0 or 3.0 μg/mL of these antibiotics were used, and the concentrations of the cholic acid derivatives required to inhibit bacterial growth of Gram-negative strains were determined.
as §8

[13] = system: Candida albicans ATCC 90028; assay: MIC and MBC measurement with Candida albicans ATCC 90028; type: cell-based; conditions: Table 10
Excerpt: as §1, §2, §3

[14] = system: E. coli (ATCC 10798); assay: MIC and MBC measurement with E. coli (ATCC 10798); type: cell-based, Escherichia coli
Excerpt: as §1, §2, §3

[15] = system: Salmonella typhimurium ATCC 14028; assay: MIC and MBC measurement with Salmonella typhimurium ATCC 14028; type: cell-based; conditions: Table 10
Excerpt: as §1, §2, §3

[16] = system: Gram-negative bacteria; assay: Sensitization to erythromycin, ester and amide side chain compounds (Table 14); type: cell-based; conditions: Table 14; strain not given
Protocol: as §3, §5
(§9) Ester and amide side chains: Additional compounds, for example, compounds with amide and ester side chains, were tested.

[17] = system: Gram-negative bacteria; assay: MIC of ester and amide side chain compounds (Table 14); type: cell-based; conditions: strain not given
Protocol: as §3, §9

[18] = system: Gram-negative bacteria; assay: Sensitization to novobiocin, ester and amide side chain compounds (Table 14); type: cell-based; conditions: strain not given
Protocol: as §3, §5, §9

[19] = Table 6, P. aureginosa (ATCC 27853)
[20] = Table 10, Pseudomonas aeruginosa ATCC 27853
[21] = Table 10, Escherichia coli ATCC 25922

SMILES | MBC [1, 20] [µg/mL] | MIC [1, 20] [µg/mL] | MBC [2, 21] [µg/mL] | MIC [2, 21] [µg/mL] | FIC [5] | concentration required to inhibit bacterial growth with antibiotic [5] [µg/mL] | MBC [6] [µg/mL] | MIC [6] [µg/mL] | MHC [7] [µg/mL] | MBC [8] [µg/mL] | MIC [8] [µg/mL] | MBC [9] [µg/mL] | MIC [9] [µg/mL] | MBC [11] [µg/mL] | MIC [11] [µg/mL] | FIC [12] | concentration required to inhibit bacterial growth with antibiotic [12] [µg/mL] | a: concentration of cholic acid derivatives required to lower MIC of erythromycin to 1 μg/ML [16] [µg/mL] | MIC [17] [µg/mL] | b: concentration of cholic acid derivatives required to lower MIC of novobiocin to 1 μg/ML [18] [µg/mL] | other results
C[C@H](CCCN(C)Cc1ccccc1)[C@H]1CC[C@H]2[C@@H]3[C@H](OCCCNC(=N)N)C[C@@H]4C[C@H](OCCCNC(=N)N)CC[C@]4(C)[C@H]3C[C@H](OCCCNC(=N)N)[C@]12C [Compound 5] | 9.9 (≈ 12.5 µM) | 5.9 (≈ 7.42 µM) | 3.8 (≈ 4.78 µM) | 1.4 (≈ 1.76 µM) | 0.42 | 2.3 | 16 (≈ 20.1 µM) | 2.2 (≈ 2.77 µM) | 26 | 3.2 (≈ 4.02 µM) | 0.6 (≈ 0.755 µM) | 2.1 (≈ 2.64 µM) | 2.0 (≈ 2.52 µM) | 6.7 (≈ 8.43 µM) | 3.0 (≈ 3.77 µM) | 0.31 | 0.38 | – | – | – | MBC [1, 19]: 15 µg/mL (≈ 18.9 µM); MIC [1, 19]: 6 µg/mL (≈ 7.55 µM); MBC ([2]; Table 4, E. coli (ATCC 25922)): 4 µg/mL (≈ 5.03 µM); MIC ([2]; Table 4, E. coli (ATCC 25922)): 2 µg/mL (≈ 2.52 µM); MIC: concentration required to lower the MIC of novobiocin from >500 μg/mL to 1 μg/mL [3]: 2 µg/mL; MBC (with novobiocin) ([3]; novobiocin sensitization): 4 µg/mL; MIC: concentration required to lower the MIC of novobiocin from >500 μg/mL to 1 μg/mL [4]: 6 µg/mL; MIC: concentration required to lower the MIC of erythromycin from 240 μg/mL to 5 μg/mL ([5]; Table 7, P. aureginosa (ATCC 27853)): 3 µg/mL; MBC (with erythromycin) ([5]; Table 7, P. aureginosa (ATCC 27853), erythromycin sensitization): 10 µg/mL; MIC: concentration required to lower the MIC of erythromycin from 70 μg/mL to 1 μg/mL [10]: 1 µg/mL; MBC (with erythromycin) ([10]; erythromycin sensitization): 3 µg/mL; MIC: concentration required to lower the MIC of erythromycin from 60 μg/mL to 1 μg/mL ([12]; Table 5, E. coli (ATCC 25922)): 1.5 µg/mL; MBC (with erythromycin) ([12]; Table 5, E. coli (ATCC 25922), erythromycin sensitization): 1.5 µg/mL; MBC [13]: 50 µg/mL (≈ 62.9 µM); MIC [13]: 11 µg/mL (≈ 13.8 µM); MBC ([14]; Table 1, E. coli (ATCC 10798)): 4 µg/mL (≈ 5.03 µM); MIC ([14]; Table 1, E. coli (ATCC 10798)): 2 µg/mL (≈ 2.52 µM); MBC [15]: 3.8 µg/mL (≈ 4.78 µM); MIC [15]: 2.2 µg/mL (≈ 2.77 µM)
CCCCCCCCNCCC[C@@H](C)[C@H]1CC[C@H]2[C@@H]3[C@H](OCCCNC(=N)N)C[C@@H]4C[C@H](OCCCNC(=N)N)CC[C@]4(C)[C@H]3C[C@H](OCCCNC(=N)N)[C@]12C [Compound 134] | 2.9 (≈ 3.61 µM) | 2.0 (≈ 2.49 µM) | 0.37 (≈ 0.461 µM) | 0.31 (≈ 0.386 µM) | 0.42 | 0.70 | 5.8 (≈ 7.22 µM) | 3.0 (≈ 3.73 µM) | 9.0 | 1.4 (≈ 1.74 µM) | 0.59 (≈ 0.735 µM) | 3.5 (≈ 4.36 µM) | 3.5 (≈ 4.36 µM) | 3.0 (≈ 3.73 µM) | 0.84 (≈ 1.05 µM) | 0.36 | 0.37 | – | – | – | MBC [13]: 76 µg/mL (≈ 94.6 µM); MIC [13]: 53 µg/mL (≈ 66 µM); MIC (in words) ([14]; FIG. 5, strain not named): very low; MBC [15]: 1.8 µg/mL (≈ 2.24 µM); MIC [15]: 0.81 µg/mL (≈ 1.01 µM)
C[C@H](CCCO)[C@H]1CC[C@H]2[C@@H]3[C@H](OC(=O)CN)C[C@@H]4C[C@H](OC(=O)CN)CC[C@]4(C)[C@H]3C[C@H](OC(=O)CN)[C@]12C [Compound 203a] | – | – | – | – | – | – | – | – | – | – | – | – | – | – | – | – | – | 18 | 85 | 55 | –
C[C@H](CCCO)[C@H]1CC[C@H]2[C@@H]3[C@H](OC(=O)CCN)C[C@@H]4C[C@H](OC(=O)CCN)CC[C@]4(C)[C@H]3C[C@H](OC(=O)CCN)[C@]12C [Compound 203b] | – | – | – | – | – | – | – | – | – | – | – | – | – | – | – | – | – | 4 | 80 | 10 | –
C[C@H](CCCO)[C@H]1CC[C@H]2[C@@H]3[C@H](NC(=O)CN)C[C@@H]4C[C@H](NC(=O)CN)CC[C@]4(C)[C@H]3C[C@H](NC(=O)CN)[C@]12C [Compound 209a] | – | – | – | – | – | – | – | – | – | – | – | – | – | – | – | – | – | 25 | >100 | 75 | –
